# Experimental data published in US7897401B2, “Control of apoptosis by controlling the propensity of ceramide channel formation” (University of Maryland, College Park, priority 2005, dated 2011).
# Tests used:
# [1] = tested on: ceramide channels in the mitochondrial outer membrane (MOM); experiment: Adenylate kinase release assay in isolated rat liver mitochondria; assay type: biochemical
# Description: The preparation yielded a mitochondrial suspension containing 10 mg of protein per mL. […] The mitochondria were then pelleted at 14,000 g for 5 min at 4° C. and the supernatant was kept on ice until assayed. […] The enzymes were added to the rest of the reaction mixture 1 min before the addition of the mitochondrial supernatant to allow a trace of ATP to be consumed. The activity of adenylate kinase was detected as an increase in absorbance at 340 nm. Since the activity of the kinase decays with time, even on ice, experiments were performed in sets and the activity of the first supernatant was assayed again at the end of the set. The values were fitted to a first order decay and all values within the set were corrected for the decay of the activity, based on the time delay before assay.
# To determine the effect of sphingosine pretreatment on ceramide permeabilization of the mitochondrial outer membrane, mitochondria were incubated at room temperature in the presence of varying concentrations of sphingosine for […] before addition of ceramide and incubation for 10 min. Untreated mitochondria and mitochondria hypotonically lysed (20 μl into 1.2 ml water) served as negative and positive controls, respectively.
# Experiments with C16-ceramide were performed in a similar way except as follows. The mitochondria were suspended in the above medium except that the 1 mM Tris buffer was replaced by 5 mM HEPES. To 1.0 mL of this medium at room temperature (RT) was added 17 μL of mitochondrial suspension that had been kept on ice at a concentration of 4 mg/mL. The final mitochondrial protein concentration during the experiment was 80 μg/mL. In the case of shocked mitochondria, the 1.0 mL of medium was replaced by water. Sphingosine was added, where appropriate, from a 0.25 mg/mL solution in DMSO. Typically 4-7 incubations were run in parallel. All samples were incubated for 5 min at RT. Then some samples received 0.4 mL of fatty acid depleted bovine serum albumin (BSA), 25 mg/mL, followed immediately by 20 μL of C16-ceramide dissolved in isopropanol at 2 mg/mL. After a 10-min incubation at RT, 10 μL of 4 mM PMSF was added followed by centrifugation. In these experiments 0.3 mL of mitochondrial supernatant was added to the adenylate kinase reaction mixture.
# [2] = tested on: ceramide channels in liposomes; experiment: Liposome carboxyfluorescein release (ceramide channel formation in liposomes); assay type: biochemical; conditions: C16-ceramide 80 μg, liposomes 90 μg lipid
# Description: The polar extract of soybean phospholipids (Avanti Polar Lipids, Alabaster, Ala.) and cholesterol (Sigma Chemical, St. Louis, Mo.) were mixed in a 93:7 molar ratio in chloroform and dried under nitrogen followed by drying in vacuo overnight. This mixture resembles the lipid content of mammalian mitochondrial outer membranes. Five mg of this mixture were dispersed in 1 mL of 39 mM NaCl, 6 mM DPX (Molecular Probes, Eugene, Oreg.), 1.5 mM carboxyfluorescein (Acros Organics, Geel, Belgium) and subjected to four freeze-thaw/sonication cycles. After extrusion through a 0.2 μm filter (Avanti Polar Lipids) for 13 passes it was run through a gel filtration column equilibrated and eluted with 50 mM NaCl, 10 mM HEPES, 1 mM EDTA, pH 7.0. The liposomes were used within 30 h. Twenty-five microliters of liposomes were dispersed into 2.0 mL of the elution buffer and placed into a quartz fluorescence cuvette. The fluorescence was monitored using a Deltascan Spectrofluorometer (Photon Technology Instruments, West Sussex, UK) using excitation at 495 nm and emission at 520 nm. Forty microliters of C16-ceramide (2 mg/mL of isopropanol) were added while stirring. Sphingosine was added from either a 1 mg/mL or a 0.1 mg/mL solution in DMSO.
# [3] = tested on: ceramide channels; experiment: Screening for influence on ceramide channel formation in liposomes or planar membranes; assay type: biochemical
# Source text: In one embodiment, such methods comprise screening compounds for their ability to influence the formation of ceramide channels in liposomes or planar membranes. […] Such liposomes or planar membranes can be produced using any of a variety of lipids. Preferably, however, the constituents of the liposomes or planar membranes will be selected to mimic those of the MOM, or to have relevance to such membranes (see, Weissig, V. et al. (2006) “LIPOSOMES AND LIPOSOME-LIKE VESICLES FOR DRUG AND DNA DELIVERY TO MITOCHONDRIA,” J. Liposome Res. 16(3):249-264; Torchilin, V. P. (2006) “RECENT APPROACHES TO INTRACELLULAR DELIVERY OF DRUGS AND DNA AND ORGANELLE TARGETING,” Annu. Rev. Biomed. Eng. 8:343-375; Elrick, M. J. et al. (2006) “SPHINGOSINE, A PRODUCT OF CERAMIDE HYDROLYSIS, INFLUENCES THE FORMATION OF CERAMIDE CHANNELS,” Biophys. J. 1; 91(5):1749-1756; Bathori, G. et al. (2006) “CA2+-DEPENDENT CONTROL OF THE PERMEABILITY PROPERTIES OF THE MITOCHONDRIAL OUTER MEMBRANE AND VOLTAGE-DEPENDENT ANION-SELECTIVE CHANNEL (VDAC),” J. Biol. Chem. 281(25):17347-17358; Stiban, J. et al. (2006) “DIHYDROCERAMIDE HINDERS CERAMIDE CHANNEL FORMATION: IMPLICATIONS ON APOPIOSIS,” Apoptosis 11(5):773-780; Stover, T. C. et al. (2005) “SYSTEMIC DELIVERY OF LIPOSOMAL SHORT-CHAIN CERAMIDE LIMITS SOLID TUMOR GROWTH IN MURINE MODELS OF BREAST ADENOCARCINOMA,” Clin. Cancer Res. 11(9):3465-3474).
# [4] = Ability of sphingolipids to form channels in membranes; assay type: biochemical
# Source text: The present invention establishes that sphingosine is capable of directly disassembling ceramide channels, thus proving the existence of this novel anti-apoptotic regulatory step. The ability of sphingosine, sphingosine-1-phosphate ([…]) and ceramide-1-phosphate the ability to form channels was investigated.
# [5] = Protein (cytochrome c) release and metabolism of sphingosine in isolated mitochondria; assay type: biochemical; conditions: compound alone, maximum
# [6] = published value; cited from earlier work
# [7] = observed in isolated mitochondria and liposome permeability assay
structure (smiles),measurement,setting,value
CCCCCCCCCCCCC/C=C/[C@@H](O)[C@@H](N)CO [sphingosine],permeabilization of the MOM to adenylate kinase after removal of excess compound with BSA,"[1]; 2.4 μg/mL for 5 min, then fatty acid depleted BSA, no ceramide added",release of adenylate kinase is evident
same,effect of preincubation on C16-ceramide permeabilization of the MOM and adenylate kinase release,"[1]; 5 min preincubation, C16-ceramide 40 μg/mL, 10 min, low concentration potentiates, higher inhibits",biphasic relationship
same,sphingosine exposure giving essentially total inhibition of ceramide-dependent adenylate kinase release,"[1]; 5 min pretreatment, then C2-ceramide 29 μg/mL for 10 min at room temperature, depends on batch of mitochondria",0.3 to 0.6 µg/mL
same,release of adenylate kinase by compound alone,"[1]; no ceramide, concentration range up to 6 μg/mL",did not induce the release of adenylate kinase
same,higher levels that strongly inhibited ceramide channel formation,[1]; [7],5 to 10 µM
same,low levels that stimulated ceramide induced permeabilization of the mitochondrial outer membrane to proteins,[1]; [7],1 to 2 µM
same,effect of pretreatment on C16-ceramide-induced carboxyfluorescein release from liposomes,[2],biphasic enhancement
same,concentration at which very potent inhibitor of ceramide channels,[3],5 µM
same,ability to form channels,[4],produced real channels
same,release of cytochrome c from isolated mitochondria,[5],≤ 15%
same,CMC,[6],more than 30 μg/mL
